{"source": "patent EP4737473A1", "about": "“NOVEL COMPLEMENT INHIBITOR AND PREPARATION, USE AND PRODUCT THEREOF” (Liu, Xiaorong, priority 2023, dated 2025)", "key": {"[1]": {"target": "T1, His-tag recombinant human C3 protein (Homo sapiens, UniProt P01024)", "assay": "BLI affinity assay (Bio-Layer Interferometry, Ni-NTA biosensor, ForteBio Octet)", "type": "binding", "parameters": "purchased Sino Biological Inc", "conditions": "for Kd: 60s association, 90s dissociation, PBS pH 8.0; for kon: association rate constant; for koff: dissociation rate constant, read-out: kdis", "text": "The BLI affinity assay was used to verify the effects of the cyclic peptides of the disclosure and the control product.\nBLI refers to Bio-Layer Interferometry. The principle is: after visible light is emitted from the spectrometer, two reflected spectra are formed at the two interfaces of the optical film layer at the end of the sensor, and an interference spectrum is formed. Any change in film thickness caused by molecular binding can be reflected by the displacement value of the interference spectrum.\nSubsequently, a 90s dissociation step was performed after the 60s association phase to obtain the Kd value by fitting the curve.\nThe stock solution was dissolved in 15% acetonitrile, and the working solution was serially diluted with PBS at pH 8.0."}, "[2]": {"system": "classical pathway complement", "assay": "Classical pathway complement inhibition assay (ELISA, human plasma)", "type": "biochemical", "conditions": "human plasma 1:40 in VBS, 15 minutes at room temperature", "method": "The half-inhibitory concentration values of SEQ ID NO.1-6 were evaluated by the classical pathway complement inhibition assay. The association constant (Ka), dissociation constant (Kd), and equilibrium dissociation constant (KD) were determined by surface plasmon resonance (SPR) assay.\nThe complement inhibition assay can be performed with reference to the following steps: Evaluation was performed by an established enzyme-linked immunosorbent assay (ELISA). Under normal ambient temperature, 96-well plates were coated with 50 µL of 1% ovalbumin in PBS for 2 hours. […] After washing, complement activation (C3b/iC3b/C3d bound to immune complexes) was detected using HRP-conjugated goat α-human C3 antibody (1:1000; MP Biomedicals). The reaction was performed using HRP substrate (0.05% ABTS and 0.1% H2O2 dissolved in 0.1 M sodium citrate, pH 4.2), and the absorbance was read at 405 nm using a VICTOR multi-label plate reader (PerkinElmer, Waltham, MA). 100% complement activation was obtained in the absence of the C3 peptide inhibitor, and the absorbance data obtained at 405 nm were converted to the percentage of complement inhibition. […] Surface plasmon resonance (SPR) experiments were performed using a Biacore 3000 instrument (GE Healthcare, Piscataway Town, NJ), and the binding affinity and kinetic characteristics of the cyclic peptides were evaluated by SPR."}, "C3 protein": {"target": "C3 protein (Homo sapiens, UniProt P01024)", "assay": "MST affinity assay (microscale thermophoresis, Monolith NT.115)", "type": "binding", "conditions": "polypeptide about 200 nM, 0.5×PBS, 15% ACN, maximum protein concentration 0.25 µM"}, "[3]": {"target": "T1, His-tag recombinant human C3 protein", "assay": "BLI (ForteBio Octet), His-tag C3 on Ni-NTA biosensor, peptide in solution"}, "[4]": {"target": "C3 protein (MST affinity assay) (Homo sapiens (Human)) (UniProt P01024)", "sequence (P01024 23-667 limits assumed, form in doubt, chain 1 of 2)": "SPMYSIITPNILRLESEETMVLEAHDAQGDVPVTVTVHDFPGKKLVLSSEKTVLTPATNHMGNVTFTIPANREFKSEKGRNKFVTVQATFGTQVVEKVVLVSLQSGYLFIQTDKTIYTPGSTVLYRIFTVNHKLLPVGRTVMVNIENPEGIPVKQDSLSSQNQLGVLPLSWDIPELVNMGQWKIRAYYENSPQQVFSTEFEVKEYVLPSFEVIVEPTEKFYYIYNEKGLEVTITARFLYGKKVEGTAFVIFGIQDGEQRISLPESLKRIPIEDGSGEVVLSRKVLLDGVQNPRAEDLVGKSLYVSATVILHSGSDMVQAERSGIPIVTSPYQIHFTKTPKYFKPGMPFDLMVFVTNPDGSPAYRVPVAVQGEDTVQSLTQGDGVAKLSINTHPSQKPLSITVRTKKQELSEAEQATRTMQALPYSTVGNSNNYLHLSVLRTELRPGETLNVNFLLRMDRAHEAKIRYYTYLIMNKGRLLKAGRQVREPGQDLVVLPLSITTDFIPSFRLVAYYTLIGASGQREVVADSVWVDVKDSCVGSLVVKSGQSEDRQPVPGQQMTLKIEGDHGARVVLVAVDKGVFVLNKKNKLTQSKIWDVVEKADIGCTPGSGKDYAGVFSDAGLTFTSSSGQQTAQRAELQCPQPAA", "sequence (P01024 672-1663 limits assumed, form in doubt, chain 2 of 2)": "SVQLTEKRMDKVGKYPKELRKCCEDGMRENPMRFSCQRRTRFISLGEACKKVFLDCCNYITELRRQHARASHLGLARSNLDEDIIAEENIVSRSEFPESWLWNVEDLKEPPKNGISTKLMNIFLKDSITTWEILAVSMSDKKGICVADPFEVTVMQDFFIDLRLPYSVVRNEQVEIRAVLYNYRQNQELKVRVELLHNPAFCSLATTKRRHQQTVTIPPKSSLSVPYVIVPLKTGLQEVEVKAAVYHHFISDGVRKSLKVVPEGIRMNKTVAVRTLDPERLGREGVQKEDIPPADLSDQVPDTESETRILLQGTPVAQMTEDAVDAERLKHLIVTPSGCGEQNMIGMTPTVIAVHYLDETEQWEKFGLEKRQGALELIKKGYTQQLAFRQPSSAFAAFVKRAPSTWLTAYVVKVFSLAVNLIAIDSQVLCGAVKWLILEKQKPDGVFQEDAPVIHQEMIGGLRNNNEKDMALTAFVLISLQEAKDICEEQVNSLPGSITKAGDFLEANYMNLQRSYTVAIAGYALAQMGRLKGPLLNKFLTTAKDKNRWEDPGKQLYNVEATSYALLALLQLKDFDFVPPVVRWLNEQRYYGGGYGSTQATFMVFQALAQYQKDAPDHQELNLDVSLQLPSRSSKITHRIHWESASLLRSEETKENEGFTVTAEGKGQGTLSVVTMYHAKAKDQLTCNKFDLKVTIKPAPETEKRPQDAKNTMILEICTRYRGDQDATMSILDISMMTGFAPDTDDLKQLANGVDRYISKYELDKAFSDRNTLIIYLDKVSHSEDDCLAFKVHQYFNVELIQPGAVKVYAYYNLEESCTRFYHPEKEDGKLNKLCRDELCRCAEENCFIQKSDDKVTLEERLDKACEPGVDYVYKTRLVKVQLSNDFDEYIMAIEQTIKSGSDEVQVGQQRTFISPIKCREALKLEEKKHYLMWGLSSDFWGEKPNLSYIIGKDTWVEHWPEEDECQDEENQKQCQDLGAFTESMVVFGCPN", "assay": "MST (Monolith NT.115), retest; fluorescently labeled peptide, C3 protein titrated"}, "[5]": {"target": "C3 protein (MST affinity assay) (Homo sapiens (Human)) (UniProt P01024)", "assay": "MST (Monolith NT.115), fluorescently labeled peptide ~200 nM, C3 protein titrated from 0.25 uM"}, "[6]": {"target": "C3 in human plasma (human) (UniProt P01024)", "sequence (P01024 23-1663)": "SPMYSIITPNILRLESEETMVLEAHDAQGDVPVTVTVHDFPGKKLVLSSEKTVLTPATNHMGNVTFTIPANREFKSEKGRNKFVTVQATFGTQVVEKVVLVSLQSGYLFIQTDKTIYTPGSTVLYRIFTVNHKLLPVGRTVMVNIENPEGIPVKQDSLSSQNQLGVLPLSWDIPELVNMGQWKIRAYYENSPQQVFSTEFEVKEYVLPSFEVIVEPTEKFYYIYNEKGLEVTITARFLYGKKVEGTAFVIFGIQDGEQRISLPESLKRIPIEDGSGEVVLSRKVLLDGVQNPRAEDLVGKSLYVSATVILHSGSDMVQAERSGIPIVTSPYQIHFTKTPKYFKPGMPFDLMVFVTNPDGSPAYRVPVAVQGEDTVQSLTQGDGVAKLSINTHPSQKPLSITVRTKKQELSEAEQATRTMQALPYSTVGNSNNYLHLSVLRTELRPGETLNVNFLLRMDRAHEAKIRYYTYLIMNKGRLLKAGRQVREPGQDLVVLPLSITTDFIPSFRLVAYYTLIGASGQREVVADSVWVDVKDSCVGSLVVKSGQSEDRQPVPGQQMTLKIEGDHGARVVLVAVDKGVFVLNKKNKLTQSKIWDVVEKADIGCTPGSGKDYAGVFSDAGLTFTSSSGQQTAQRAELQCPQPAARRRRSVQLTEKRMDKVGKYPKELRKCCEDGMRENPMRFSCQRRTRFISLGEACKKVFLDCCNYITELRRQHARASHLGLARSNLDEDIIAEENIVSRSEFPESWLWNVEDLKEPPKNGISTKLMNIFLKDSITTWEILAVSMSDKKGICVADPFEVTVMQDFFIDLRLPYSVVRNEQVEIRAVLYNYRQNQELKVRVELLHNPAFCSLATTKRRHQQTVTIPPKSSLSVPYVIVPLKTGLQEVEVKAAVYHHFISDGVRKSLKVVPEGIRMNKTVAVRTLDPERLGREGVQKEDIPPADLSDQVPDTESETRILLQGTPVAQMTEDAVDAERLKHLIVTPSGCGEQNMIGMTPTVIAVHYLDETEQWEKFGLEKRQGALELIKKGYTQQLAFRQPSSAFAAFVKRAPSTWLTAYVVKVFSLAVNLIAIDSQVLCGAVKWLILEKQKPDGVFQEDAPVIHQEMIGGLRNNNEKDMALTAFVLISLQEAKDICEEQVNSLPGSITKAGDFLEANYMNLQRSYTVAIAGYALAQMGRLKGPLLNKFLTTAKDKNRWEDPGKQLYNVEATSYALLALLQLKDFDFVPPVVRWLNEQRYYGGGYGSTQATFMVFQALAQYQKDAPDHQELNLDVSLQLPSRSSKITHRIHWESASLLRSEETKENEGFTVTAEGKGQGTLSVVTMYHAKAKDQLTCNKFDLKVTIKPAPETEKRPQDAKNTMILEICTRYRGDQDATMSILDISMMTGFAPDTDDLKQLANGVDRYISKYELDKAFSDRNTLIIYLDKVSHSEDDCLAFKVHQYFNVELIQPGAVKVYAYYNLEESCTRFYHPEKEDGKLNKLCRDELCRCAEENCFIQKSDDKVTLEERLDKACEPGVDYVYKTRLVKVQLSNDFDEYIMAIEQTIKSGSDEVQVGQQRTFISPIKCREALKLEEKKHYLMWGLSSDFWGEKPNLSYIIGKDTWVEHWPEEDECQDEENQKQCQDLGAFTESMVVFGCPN", "assay": "cell-based or functional assay"}}, "note": "Positions of bridges follow the written chain, without caps; N, C: chain ends. Non-standard residues stand in square brackets, D forms with d. Residues, ends and D or L forms follow the SMILES beside them. ξ: configuration not given here. Bpa = N[C@@H](Cc1ccc(C(=O)c2ccccc2)cc1)C(=O)O; Trp(7-aza) = N[C@@H](Cc1c[nH]c2ncccc12)C(=O)O; Trp(1-Me) = Cn1cc(C[C@H](N)C(=O)O)c2ccccc21; ξTrp(5-F) = NC(Cc1c[nH]c2ccc(F)cc12)C(=O)O; 2Nal = N[C@@H](Cc1ccc2ccccc2c1)C(=O)O; Api = NC1(C(=O)O)CCNCC1; Abu = CC[C@H](N)C(=O)O; Aib = CC(C)(N)C(=O)O", "data": [{"compound": "CC[C@H](C)[C@H](NC(C)=O)C(=O)N[C@H]1CSSC[C@@H](C(=O)N[C@H](C(N)=O)[C@@H](C)O)NC(=O)[C@H](CCCNC(=N)N)NC(=O)[C@H](Cc2c[nH]cn2)NC(=O)C(C)(C)NC(=O)CNC(=O)[C@H](Cc2ccc3ccccc3c2)NC(=O)[C@H](CC(=O)O)NC(=O)[C@H](CCC(N)=O)NC(=O)[C@H](Cc2cn(C)c3ccccc23)NC(=O)[C@H](C(C)C)NC1=O", "note": "[SEQ ID NO.1, Ac-ICV-W(CH3)-QD-2Nal -G-Aib-HRCT-NH2(C-C)] (Ac-ICV[Trp(1-Me)]QD[2Nal]G[Aib]HRCT-NH2; disulfide 2-12)", "values": [{"measurement": "Kd", "setting": "[1]", "result": 3190, "unit": "nM"}, {"measurement": "kon", "setting": "[1]", "result": 15400, "unit": "M⁻¹ s⁻¹"}, {"measurement": "koff", "setting": "[1]", "result": 0.0492, "unit": "s⁻¹"}]}, {"compound": "CC[C@H](C)[C@H](NC(C)=O)C(=O)N[C@H]1CSSC[C@@H](C(=O)N[C@H](C(N)=O)[C@@H](C)O)NC(=O)[C@H](CCCNC(=N)N)NC(=O)[C@H](Cc2c[nH]cn2)NC(=O)C(C)(C)NC(=O)CNC(=O)C(Cc2c[nH]c3ccc(F)cc23)NC(=O)[C@H](CC(=O)O)NC(=O)[C@H](CCC(N)=O)NC(=O)[C@H](Cc2c[nH]c3ncccc23)NC(=O)[C@H](C(C)C)NC1=O", "note": "(some centres unmarked) [SEQ ID NO.2, Ac-ICV-AzaTrp-QD-5F-Trp-G-Aib-HRCT-NH2(C-C)] (Ac-ICV[Trp(7-aza)]QD[ξTrp(5-F)]G[Aib]HRCT-NH2; disulfide 2-12)", "values": [{"measurement": "IC50", "setting": "[2]", "result": 920, "unit": "nM"}, {"measurement": "kon", "setting": "[1]", "result": 393000, "unit": "M⁻¹ s⁻¹"}, {"measurement": "koff", "setting": "[1]", "result": 0.0179, "unit": "s⁻¹"}]}, {"compound": "CC[C@H](C)[C@H](NC(C)=O)C(=O)N[C@H]1CSSC[C@@H](C(=O)N[C@H](C(N)=O)[C@@H](C)O)NC(=O)[C@H](CCCNC(=N)N)NC(=O)[C@H](Cc2c[nH]cn2)NC(=O)C(C)(C)NC(=O)CNC(=O)C(Cc2c[nH]c3ccc(F)cc23)NC(=O)[C@H](CC(=O)O)NC(=O)[C@H](CCC(N)=O)NC(=O)[C@H](Cc2ccc3ccccc3c2)NC(=O)[C@H](C(C)C)NC1=O", "note": "(some centres unmarked) [SEQ ID NO.3, Ac-ICV-2Nal-QD-5F-Trp-G-Aib-HRCT-NH2(C-C)] (Ac-ICV[2Nal]QD[ξTrp(5-F)]G[Aib]HRCT-NH2; disulfide 2-12)", "values": [{"measurement": "Kd", "setting": "[1]", "result": 45.4, "unit": "nM"}, {"measurement": "kon", "setting": "[1]", "result": 387000, "unit": "M⁻¹ s⁻¹"}, {"measurement": "koff", "setting": "[1]", "result": 0.0176, "unit": "s⁻¹"}, {"measurement": "Kd", "setting": "C3 protein", "result": 35.4, "unit": "nM"}]}, {"compound": "CC[C@@H]1NC(=O)[C@@H](NC(=O)[C@@H](NC(C)=O)[C@@H](C)CC)CSSC[C@@H](C(=O)N[C@H](C(N)=O)[C@@H](C)O)NC(=O)[C@H](CCCNC(=N)N)NC(=O)[C@H](Cc2c[nH]cn2)NC(=O)C2(CCNCC2)NC(=O)CNC(=O)C(Cc2c[nH]c3ccc(F)cc23)NC(=O)[C@H](CC(=O)O)NC(=O)[C@H](CCC(N)=O)NC(=O)[C@H](Cc2cn(C)c3ccccc23)NC1=O", "note": "(some centres unmarked) [SEQ ID NO.4, Ac-IC-Abu-W(CH3)-QD-5F-Trp -G-Pip-HRCT-NH2(C-C)] (Ac-IC[Abu][Trp(1-Me)]QD[ξTrp(5-F)]G[Api]HRCT-NH2; disulfide 2-12)", "values": [{"measurement": "IC50", "setting": "[2]", "result": 2260, "unit": "nM"}, {"measurement": "kon", "setting": "[1]", "result": 112000, "unit": "M⁻¹ s⁻¹"}, {"measurement": "koff", "setting": "[1]", "result": 0.0393, "unit": "s⁻¹"}]}, {"compound": "CC[C@@H]1NC(=O)[C@@H](NC(=O)[C@@H](NC(C)=O)[C@@H](C)CC)CSSC[C@@H](C(=O)N[C@H](C(N)=O)[C@@H](C)O)NC(=O)[C@H](CCCNC(=N)N)NC(=O)[C@H](Cc2c[nH]cn2)NC(=O)C(C)(C)NC(=O)CNC(=O)C(Cc2c[nH]c3ccc(F)cc23)NC(=O)[C@H](CC(=O)O)NC(=O)[C@H](CCC(N)=O)NC(=O)[C@H](Cc2ccc3ccccc3c2)NC1=O", "note": "(some centres unmarked) [SEQ ID NO.5, Ac-IC-Abu- 2Nal -QD-5F-Trp -G-Aib-HRCT-NH2(C-C)] (Ac-IC[Abu][2Nal]QD[ξTrp(5-F)]G[Aib]HRCT-NH2; disulfide 2-12)", "values": [{"measurement": "Kd", "setting": "[1]", "result": 2260, "unit": "nM"}, {"measurement": "kon", "setting": "[1]", "result": 13100, "unit": "M⁻¹ s⁻¹"}, {"measurement": "koff", "setting": "[1]", "result": 0.0296, "unit": "s⁻¹"}]}, {"compound": "CC[C@H](C)[C@H](NC(C)=O)C(=O)N[C@H]1CSSC[C@@H](C(=O)N[C@H](C(N)=O)[C@@H](C)O)NC(=O)[C@H](CCCNC(=N)N)NC(=O)[C@H](Cc2c[nH]cn2)NC(=O)C(C)(C)NC(=O)CNC(=O)C(Cc2c[nH]c3ccc(F)cc23)NC(=O)[C@H](CC(=O)O)NC(=O)[C@H](CCC(N)=O)NC(=O)[C@H](Cc2ccc(C(=O)c3ccccc3)cc2)NC(=O)[C@H](Cc2ccc(O)cc2)NC1=O", "note": "(stereo partly drawn) [SEQ ID NO.6, Ac-IC-Tyr-Bpa-QD-5F-Trp -G-Aib-HRCT-NH2(C-C)] (Ac-ICY[Bpa]QD[ξTrp(5-F)]G[Aib]HRCT-NH2; disulfide 2-12)", "values": [{"measurement": "Kd", "setting": "[1]", "result": 39900, "unit": "nM"}, {"measurement": "kon", "setting": "[1]", "result": 925, "unit": "M⁻¹ s⁻¹"}, {"measurement": "koff", "setting": "[1]", "result": 0.0369, "unit": "s⁻¹"}]}, {"compound": "SEQ ID NO.2: Ac-ICV-AzaTrp-QD-5F-Trp-G-Aib-HRCT-NH2 (C-C) (peptide)", "values": [{"measurement": "Kd", "setting": "[3]", "result": 45.4, "unit": "nM"}, {"measurement": "Kd", "setting": "[4]", "result": 24.6, "unit": "nM"}, {"measurement": "Kd", "setting": "[5]", "result": 114, "unit": "nM"}, {"measurement": "IC50 (µm), classical pathway complement inhibition assay (ELISA, C3b/iC3b/C3d deposition from human plasma)", "setting": "[6]", "result": 920, "unit": "nM"}]}, {"compound": "SEQ ID NO.3: Ac-ICV-2Nal-QD-5F-Trp-G-Aib-HRCT-NH2 (C-C) (peptide)", "values": [{"measurement": "IC50 (µm), classical pathway complement inhibition assay (ELISA, C3b/iC3b/C3d deposition from human plasma)", "setting": "[6]", "result": 1460, "unit": "nM"}]}, {"compound": "SEQ ID NO.4: Ac-IC-Abu-W(CH3)-QD-5F-Trp-G-Pip-HRCT-NH2 (C-C) (peptide)", "values": [{"measurement": "Kd", "setting": "[3]", "result": 351, "unit": "nM"}, {"measurement": "IC50 (µm), classical pathway complement inhibition assay (ELISA, C3b/iC3b/C3d deposition from human plasma)", "setting": "[6]", "result": 2260, "unit": "nM"}]}]}
